From patent US8507469B2, “Azetidin compounds suitable for treating disorders that respond to modulation of the serotonin 5-HT6 receptor” (Abbott GmbH & Co. KG, priority 2007, dated 2013)
Where a name gives a salt, the structure may show the parent alone.

Key:
[1] = molecular target: T1, h-5-HT6 receptor (Homo sapiens, UniProt P50406); assay: 5-HT6 receptor binding assay (displacement of [3H]-LSD); settings: HEK293 membranes, 1 nM [3H]-LSD
T1 construct: expressed in transfected cells
Procedure: (§1) Cells from stable clonal cell lines expressing the corresponding receptor (5-HT6, 1-adrenergic, dopamine D2 or histamine H1 receptors) were washed with PBS (w/o Ca^++, Mg^++) and harvested in PBS with 0.02% EDTA. The cells were collected by centrifugation at 500 g for 10 min. at 4° C., washed with PBS and centrifuged (500 g, 10 min. 4° C.). The pellets were stored at −80° C. until use. For membrane preparation, the thawed cell pellet was resuspended in ice-cold sucrose buffer (0.25 M sucrose, 10 mM Hepes (pH 7.4), 1 mM Phenylmethylsulfonyl fluoride (PMSF) in DMSO, […] Pepstatin-A, 3 mM EDTA, 0.025% Bacitracin) and homogenized with a Branson Sonifier W-250 (Settings: Timer 4; Output Control 3; Duty Cycle constant; 2 to 3 cycles). Cell disruption was checked with the aid of a microscope. Remaining unbroken cells were pelleted at 1.000 g for 10 min. at 4° C. The sucrose buffer supernatant was then centrifuged at 60.000 g for 1 h at 4° C. (Beckman Ultrazentrifuge XL 80). The pellet was resuspended in 30 ml ice-cold Tris buffer (20 mM TRIS (pH 7.4), […] Pepstatin A, 0.1 mM PMSF, 3 mM EDTA) by pipetting through a 10 ml serological pipet and centrifuged for 1 h at 4° C. at 60.000 g. A final resuspension was performed in a small volume of ice-cold Tris buffer (see above) by pressing through a serological pipet followed by ultrasonic treatment with a Branson Sonifier W-250 (Settings: Timer 1; Output Control 3; Duty Cycle constant; 1 cycle). Protein concentration was determined (BCA-Kit; Pierce) and aliquots stored at −80° C. or in liquid nitrogen for long-term storage.
(§2) All receptor binding experiments were carried out in the corresponding assay buffer in a total volume of 200 μl in the presence of various concentrations of test compound (10^−5 M to 10^−9 M, tenfold serial dilution, duplicate determinations). The assays were terminated by filtration on polyethylenimine (PEI 0.1% or 0.3%) presoaked Packard Unifilter Plates (GF/C or GF/B) with a Tomtec MachIII U 96well-plate harvester. After the plates had been dried for 2 h at 55° C. in a drying chamber scintillation cocktail (BetaPlate Scint; PerkinElmer) was added. Radioactivity was measured in a Microbeta Trilux two hours after the addition of the scintillation mixture. Data derived from liquid scintillation counting were analysed by iterative non-linear regression analysis with the use of the Statistical Analysis System (SAS): a program similar to “LIGAND” as described by Munson and Rodbard (Analytical Biochemistry 107, 220-239 (1980).
HEK293 cells stably expressing the h-5-HT6 receptor (NCBI Reference Sequence XM 001435) were cultured in RPMI1640 medium supplemented with 25 mM HEPES, 10% fetal calf serum and 1-2 mM glutamine. The membrane preparation was performed as described in section 1. […] Non-specific binding was defined with 1 μM methiothepin. The binding reaction was carried out for 3.5 h at room temperature. During the incubation, the plates were shaken on a plate shaker at 100 rpm and terminated by filtration on Packard Unifilter GF/C (0.1% PEI) plates, followed by 2 wash cycles with ice-cold 50 mM Tris-HCl, 5 mM CaCl2.
(§3) Data derived from liquid scintillation counting were analyzed by iterative non-linear regression analysis with the use of the Statistical Analysis System (SAS): a program similar to “LIGAND” as described by Munson and Rodbard (Anal. Biochem. 1980, 107, 220-239). Fitting was performed according to formulae described by Feldman (Anal. Biochem. 1972, 48, 317-338). IC50, nH and Ki values were expressed as geometrical mean.

[2] = molecular target: T2, dopamine D2 receptor (Homo sapiens, UniProt P14416); assay: Dopamine D2 receptor binding assay (displacement of [125I]-iodospiperone); settings: for Ki: HEK293 membranes, 0.01 nM [125I]-iodospiperone
T2 construct: expressed in transfected cells
Procedure: as §1, §2
HEK293 cells stably expressing the dopamine D2 receptor (NCBI Reference Sequence NM_000795) were cultured in RPMI1640 medium supplemented with 25 mM HEPES, 10% fetal calf serum and 1-2 mM glutamine. The membrane preparation was performed as described in section 1. […] On the day of the assay, the membranes were thawed, diluted in assay buffer (50 mM Tris-HCl, 120 mM NaCl, 5 mM MgCl2, 5 mM KCl, 1.5 mM CaCl2, pH 7.4) to a concentration of 15 μg protein/assay and homogenized by gentle vortexing. For inhibition studies, 0.01 nM [^125I]-iodospiperone (PerkinElmer Life Sciences, NEX284) was incubated in the presence of various concentrations of test compound in assay buffer. Non-specific binding was defined with 1 μM haloperidol. The binding reaction was carried out for 1 h at room temperature and terminated by filtration on Packard Unifilter GF/B (0.1% PEI) plates, followed by 6 wash cycles with an ice-cold 7% polyethylenglycol solution.
as §3

[3] = molecular target: T3, α1-adrenergic receptor (Homo sapiens, UniProt P35348); assay: α1-adrenergic receptor binding assay (displacement of [3H]-prazosine); settings: CHO-K1 membranes, 0.1 nM [3H]-prazosine
T3 construct: expressed in transfected cells
Procedure: as §1, §2
CHO-K1 cells stably expressing the 1-adrenergic receptor (NCBI Reference Sequence NM_033303) were cultured in RPMI1640 medium supplemented with 25 mM HEPES, 10% fetal calf serum and 1-2 mM glutamine. The membrane preparation was performed as described in section 1. […] On the day of the assay, the membranes were thawed, diluted in assay buffer (50 mM Tris-HCl, pH 7.4) to a concentration of 4 μg protein/assay and homogenized by gentle vortexing. […] Non-specific binding was defined with 1 μM phentolamine. The binding reaction was carried out for 1 h at room temperature and terminated by filtration on Packard Unifilter GF/C (0.1% PEI) plates, followed by 3 wash cycles with ice-cold assay buffer.
as §3

[4] = molecular target: histamine H1 receptor (Homo sapiens, UniProt P35367); assay: H1 receptor binding assay (displacement of [3H]-pyrilamine); settings: CHO-K1 membranes, 1 nM [3H]-pyrilamine
Procedure: as §1, §2
CHO-K1 cells stably expressing the histamine H1 receptor (Euroscreen-ES-390-C, NCBI Reference Sequence NM_000861) were cultured in RPMI1640 medium supplemented with 25 mM HEPES, 10% fetal calf serum and 1-2 mM glutamine. The membrane preparation was performed as described in section 1. […] On the day of the assay, the membranes were thawed, diluted in assay buffer (50 mM Na2HPO4, 50 mM KH2PO4, pH 7.4) to a concentration of 6 μg protein/assay and homogenized by gentle vortexing. […] The binding reaction was carried out for 50 minutes at room temperature and terminated by filtration on Packard Unifilter GF/C (0.3% PEI) plates, followed by 2 wash cycles with ice-cold assay buffer.
as §3

T1 sequence (P50406 whole entry): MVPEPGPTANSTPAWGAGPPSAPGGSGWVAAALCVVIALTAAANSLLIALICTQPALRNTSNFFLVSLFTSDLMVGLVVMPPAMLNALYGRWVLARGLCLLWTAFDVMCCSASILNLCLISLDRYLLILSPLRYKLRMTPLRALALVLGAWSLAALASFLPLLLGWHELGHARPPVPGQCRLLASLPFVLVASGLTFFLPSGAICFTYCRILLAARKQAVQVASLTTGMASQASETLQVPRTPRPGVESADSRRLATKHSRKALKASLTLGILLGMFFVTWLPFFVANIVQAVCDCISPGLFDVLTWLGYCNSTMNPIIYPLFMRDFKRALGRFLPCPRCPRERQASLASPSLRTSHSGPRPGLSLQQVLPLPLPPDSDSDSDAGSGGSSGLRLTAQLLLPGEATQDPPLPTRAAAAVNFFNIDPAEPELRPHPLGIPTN
T2 sequence (P14416 whole entry): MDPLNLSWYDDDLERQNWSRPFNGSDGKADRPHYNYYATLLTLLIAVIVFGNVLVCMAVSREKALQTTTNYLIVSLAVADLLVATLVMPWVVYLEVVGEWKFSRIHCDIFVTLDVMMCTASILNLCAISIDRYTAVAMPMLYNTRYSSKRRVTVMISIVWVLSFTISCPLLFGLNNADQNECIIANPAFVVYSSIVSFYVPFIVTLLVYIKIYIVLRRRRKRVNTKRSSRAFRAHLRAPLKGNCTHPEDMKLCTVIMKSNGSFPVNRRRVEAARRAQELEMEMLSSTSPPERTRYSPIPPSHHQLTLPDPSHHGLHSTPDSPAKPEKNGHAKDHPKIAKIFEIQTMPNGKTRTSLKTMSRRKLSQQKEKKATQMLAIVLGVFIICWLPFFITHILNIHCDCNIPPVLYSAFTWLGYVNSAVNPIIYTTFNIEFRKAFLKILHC
T3 sequence (P35348 1-475 isoform P35348-2): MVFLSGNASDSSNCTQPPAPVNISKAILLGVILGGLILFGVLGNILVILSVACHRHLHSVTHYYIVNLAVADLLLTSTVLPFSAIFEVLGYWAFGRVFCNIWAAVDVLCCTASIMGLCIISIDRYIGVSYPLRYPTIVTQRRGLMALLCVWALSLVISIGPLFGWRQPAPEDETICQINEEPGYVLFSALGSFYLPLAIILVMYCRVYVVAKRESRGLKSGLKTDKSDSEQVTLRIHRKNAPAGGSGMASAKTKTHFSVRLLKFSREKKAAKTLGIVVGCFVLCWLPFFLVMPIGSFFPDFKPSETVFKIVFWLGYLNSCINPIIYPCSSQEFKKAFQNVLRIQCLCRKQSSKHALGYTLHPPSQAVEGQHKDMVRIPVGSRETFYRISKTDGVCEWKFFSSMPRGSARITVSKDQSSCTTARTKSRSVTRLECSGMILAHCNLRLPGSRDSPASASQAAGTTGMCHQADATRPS
histamine H1 receptor, sequence (P35367 whole entry): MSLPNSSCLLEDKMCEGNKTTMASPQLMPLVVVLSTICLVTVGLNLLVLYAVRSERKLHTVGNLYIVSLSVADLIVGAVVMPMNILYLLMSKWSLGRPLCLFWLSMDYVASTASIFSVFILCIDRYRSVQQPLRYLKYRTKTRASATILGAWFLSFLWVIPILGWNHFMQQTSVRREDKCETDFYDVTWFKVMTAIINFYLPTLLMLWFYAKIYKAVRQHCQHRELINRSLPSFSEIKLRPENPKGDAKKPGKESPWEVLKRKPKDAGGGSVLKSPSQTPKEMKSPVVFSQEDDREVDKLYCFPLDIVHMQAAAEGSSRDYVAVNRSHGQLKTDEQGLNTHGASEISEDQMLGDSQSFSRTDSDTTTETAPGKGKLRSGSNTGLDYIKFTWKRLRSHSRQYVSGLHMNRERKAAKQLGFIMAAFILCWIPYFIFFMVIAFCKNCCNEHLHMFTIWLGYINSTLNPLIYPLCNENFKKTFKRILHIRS

Compound | Ki [1] [µM] | Ki [2] [µM] | Ki [3] [µM] | Ki [4] [µM] | Kd ([2]; saturation binding experiments, HEK293 D2 membranes, read-out: KD of radioligand) [µM]
O=S(=O)(c1cccc(C(F)(F)F)c1)N1CCc2cc(C3CNC3)ccc21 [compound 30, 5-Azetidin-3-yl-1-(3-trifluoromethyl-benzenesulfonyl)-2,3-dihydro-1H-indole, hydrochloride] | < 0.005 | > 1 | > 1 | > 1 | 
CCCN1CC(c2ccc3c(ccn3S(=O)(=O)c3cccc(C(F)(F)F)c3)c2)C1 [compound 25, 5-(1-propyl-azetidin-3-yl)-1-(3-trifluoromethylbenzenesulfonyl)-1H-indole, hydrochloride] | < 0.005 | > 1 | > 0.25 | > 1 | 
O=S(=O)(c1cccnc1)n1cc(C2CNC2)c2ccccc21 [compound 24, Azetidin-3-yl-1-(pyridine-3-sulfonyl)-1H-indole, hydrochloride] | < 0.01 | > 10 |  |  | 
O=S(=O)(c1cccc(OC(F)F)c1)n1ccc2cc(C3CNC3)ccc21 [compound 21, 5-Azetidin-3-yl-1-(3-difluoromethoxybenzenesulfonyl)-1H-indole, hydrochloride] | < 0.005 | > 1 | > 1 | > 10 | 
CCN1CC(c2ccc3c(ccn3S(=O)(=O)c3ccccc3)c2)C1 [compound 28, 5-(1-Ethylazetidin-3-yl)-1-benzenesulfonyl-1H-indole, hydrochloride] | < 0.01 | > 1 |  |  | 
CCCN1CC(c2ccc3c(ccn3S(=O)(=O)c3cccc(OC(F)F)c3)c2)C1 [compound 27, 5-(1-Propylazetidin-3-yl)-1-(3-difluoromethoxybenzenesulfonyl)-1H-indole, hydrochloride] | < 0.005 | > 1 | > 0.25 | > 1 | 
CCCN1CC(c2ccc3c(ccn3S(=O)(=O)c3cccc(OC(F)(F)F)c3)c2)C1 [compound 26, 5-(1-Propylazetidin-3-yl)-1-(3-trifluoromethoxybenzenesulfonyl)-1H-indole, hydrochloride] | < 0.005 | > 1 | > 0.25 | > 1 | 
O=S(=O)(c1ccccc1)N1CCc2cc(C3CNC3)ccc21 [compound 7, 5-azetidin-3-yl-1-benzenesulfonyl-2,3-dihydro-1H-indole, hydrochloride] | < 0.005 | > 10 | > 1 | > 1 | 
O=S(=O)(c1ccc(-c2cnco2)cc1)n1ccc2cc(C3CNC3)ccc21 [compound 3, 5-azetidin-3-yl-1-(4-oxazol-5-yl-benzenesulfonyl)-1H-indole, hydrochloride] | < 0.25 | > 1 |  |  | 
CN1CC(c2ccc3c(ccn3S(=O)(=O)c3ccccc3)c2)C1 [compound 29, 5-(1-Methylazetidin-3-yl)-1-benzenesulfonyl-1H-indole, hydrochloride] | < 0.01 | > 1 |  |  | 
O=S(=O)(c1cccc(OC(F)(F)F)c1)n1ccc2cc(C3CNC3)ccc21 [compound 20, 5-Azetidin-3-yl-1-(3-trifluoromethoxybenzenesulfonyl)-1H-indole, hydrochloride] | < 0.005 | > 1 | > 1 | > 10 | 
O=S(=O)(c1ccccc1)n1ccc2cc(C3CNC3)cnc21 [compound 46, 5-Azetidin-3-yl-1-benzenesulfonyl-1H-pyrrolo[2,3-b]pyridine, formic acid salt] | < 0.01 | > 10 | > 10 | > 10 | 
iodospiperone [[^125I]-iodospiperone, reference compound] |  |  |  |  | 0.00022
CCCN1CC(c2ccc3c(ccn3S(=O)(=O)c3ccc(OC(F)F)cc3)c2)C1 [compound 4, 1-(4-Difluoromethoxy-benzenesulfonyl)-5-(1-propyl-azetidin-3-yl)-1H-indole, hydrochloride] | < 0.05 | > 1 | > 0.25 |  | 
CCCN1CC(c2ccc3c(ccn3S(=O)(=O)c3ccccc3)c2)C1 [compound 5, 1-benzenesulfonyl-5-(1-propylazetidin-3-yl)-1H-indole, hydrochloride] | < 0.005 | > 1 | > 0.25 | > 1 | 
O=S(=O)(c1cccc(C(F)(F)F)c1)n1ccc2cc(C3CNC3)ccc21 [compound 19, 5-azetidin-3-yl-1-(3-trifluoromethyl-benzenesulfonyl)-1H-indole, hydrochloride] | < 0.005 | > 10 | > 1 | > 10 | 
CCCN1CC(c2ccc3c(ccn3S(=O)(=O)c3ccc(-c4cnco4)cc3)c2)C1 [compound 6, 1-(4-oxazol-5-yl-benzenesulfonyl)-5-(1-propylazetidin-3-yl)-1H-indole, hydrochloride] | < 0.25 | > 1 |  |  | 
O=S(=O)(c1ccccc1)n1ccc2cc(C3CNC3)ccc21 [compound 2, 5-azetidin-3-yl-1-benzenesulfonyl-1H-indole, hydrochloride] | < 0.005 | > 10 | > 1 | > 10 | 
O=S(=O)(c1ccc(-c2cnco2)cc1)N1CCc2cc(C3CNC3)ccc21 [compound 8, 5-azetidin-3-yl-1-(4-oxazol-5-yl-benzenesulfonyl)-2,3-dihydro-1H-indole] | < 0.25 | > 10 |  |  | 
O=S(=O)(c1ccccc1OC(F)(F)F)n1ccc2cc(C3CNC3)ccc21 [compound 23, 5-Azetidin-3-yl-1-(2-trifluoromethoxybenzenesulfonyl)-1H-indole] | < 0.005 | > 10 | > 1 | > 1 | 
